Reference: ChEMBL document CHEMBL5608244, “Preclinical Evaluation of Dihydropyrazole-Cored Positron Emission Tomography (PET) Ligands for Imaging of Receptor-Interacting Serine/Threonine Protein Kinase 1 (RIPK1) in the Brain” (J Med Chem, 2024)

What was measured:
[1] = Biodistribution in ICR mouse bone at 0.74 MBq, iv measured after 10 mins by automatic gamma counter analysis; format: ADME, organism-based, Bone element; settings: in vivo
[2] = Biodistribution in ICR mouse assessed as drug accumulation in bone without marrow at 0.74 MBq, iv pretreated with GSK'547 followed by compound administration measured after 10 mins by automatic gamma counter analysis; format: ADME, organism-based; settings: in vivo
[3] = Biodistribution in ICR mouse brain at 0.74 MBq, iv measured after 30 mins by automatic gamma counter analysis; format: ADME, organism-based; settings: in vivo, 0.5 h
[4] = Biodistribution in ICR mouse assessed as drug accumulation in bone without marrow at 0.74 MBq, iv pretreated with 1-(5-(3-fluorophenyl)-4,5-dihydro-1H-pyrazol-1-yl)-2,2-dimethylpropan-1-one followed by compound administration measured after 10 mins by automatic gamma counter analysis; format: ADME, organism-based; settings: in vivo
[5] = Drug uptake in medulla of ICR mouse brain at 0.5 to 10 uM incubated for 30 mins by Phosphor Imager analysis; format: ADME, tissue-based, Medulla of organ; settings: 0.5 h, dose 0.5-10 µM
[6] = Biodistribution in ICR mouse bone at 0.74 MBq, iv measured after 30 mins by automatic gamma counter analysis; format: ADME, organism-based, Bone element; settings: in vivo, 0.5 h
[7] = Biodistribution in ICR mouse liver at 0.74 MBq, iv measured after 30 mins by automatic gamma counter analysis; format: ADME, organism-based; settings: in vivo, 0.5 h
[8] = Biodistribution in ICR mouse heart at 0.74 MBq, iv measured after 2 mins by automatic gamma counter analysis; format: ADME, organism-based; settings: in vivo
[9] = Biodistribution in ICR mouse small intestine at 0.74 MBq, iv measured after 2 mins by automatic gamma counter analysis; format: ADME, organism-based; settings: in vivo
[10] = Biodistribution in ICR mouse assessed as drug accumulation in liver at 0.74 MBq, iv pretreated with GSK'547 followed by compound administration measured after 10 mins by automatic gamma counter analysis; format: ADME, organism-based; settings: in vivo
[11] = Biodistribution in ICR mouse blood at 0.74 MBq, iv measured after 2 mins by automatic gamma counter analysis; format: ADME, organism-based; settings: in vivo
[12] = Biodistribution in ICR mouse muscle at 0.74 MBq, iv measured after 10 mins by automatic gamma counter analysis; format: ADME, organism-based, Muscle tissue; settings: in vivo
[13] = Drug uptake in brain of Sprague-Dawley rat at 9.9 to 14.8 MBq, iv measured for 5 mins by PET analysis; format: ADME, organism-based; settings: in vivo, dose 9.9-14.8 MBq
[14] = Biodistribution in ICR mouse muscle at 0.74 MBq, iv measured after 2 mins by automatic gamma counter analysis; format: ADME, organism-based, Muscle tissue; settings: in vivo
[15] = Drug metabolism in mouse brain assessed as polar radiometabolites accumulation at 13.5 MBq, iv measured after 30 mins by HPLC analysis; format: ADME, organism-based; settings: in vivo, 0.5 h
[16] = Biodistribution in ICR mouse kidneys at 0.74 MBq, iv measured after 10 mins by automatic gamma counter analysis; format: ADME, organism-based, Kidney; settings: in vivo
[17] = Biodistribution in ICR mouse liver at 0.74 MBq, iv measured after 60 mins by automatic gamma counter analysis; format: ADME, organism-based; settings: in vivo, 1 h
[18] = Biodistribution in ICR mouse assessed as decrease in drug accumulation in bone with marrow at 0.74 MBq, iv pretreated with 1-(5-(3-fluorophenyl)-4,5-dihydro-1H-pyrazol-1-yl)-2,2-dimethylpropan-1-one followed by compound administration measured after 10 mins by automatic gamma counter analysis; format: ADME, organism-based; set-up: scale not given: the % may be the effect or the level left; settings: in vivo
[19] = Biodistribution in ICR mouse pancreas at 0.74 MBq, iv measured after 60 mins by automatic gamma counter analysis; format: ADME, organism-based; settings: in vivo, 1 h
[20] = Drug uptake in brain of Sprague-Dawley rat at 9.9 to 14.8 MBq, iv pretreated with 1-(5-(3-fluorophenyl)-4,5-dihydro-1H-pyrazol-1-yl)-2,2-dimethylpropan-1-one measured upto 20 mins by PET analysis; format: ADME, organism-based; settings: in vivo, dose 9.9-14.8 MBq
[21] = Biodistribution in ICR mouse small intestine at 0.74 MBq, iv measured after 30 mins by automatic gamma counter analysis; format: ADME, organism-based; settings: in vivo, 0.5 h
[22] = Biodistribution in ICR mouse liver at 0.74 MBq, iv measured after 10 mins by automatic gamma counter analysis; format: ADME, organism-based; settings: in vivo
[23] = Biodistribution in ICR mouse assessed as decrease in drug accumulation in small intestine at 0.74 MBq, iv pretreated with 1-(5-(3-fluorophenyl)-4,5-dihydro-1H-pyrazol-1-yl)-2,2-dimethylpropan-1-one followed by compound administration measured after 10 mins by automatic gamma counter analysis; format: ADME, organism-based; set-up: scale not given: the % may be the effect or the level left; settings: in vivo
[24] = Biodistribution in ICR mouse kidneys at 0.74 MBq, iv measured after 60 mins by automatic gamma counter analysis; format: ADME, organism-based, Kidney; settings: in vivo, 1 h
[25] = Drug uptake in cerebellum of ICR mouse brain at 0.5 to 10 uM incubated for 30 mins by Phosphor Imager analysis; format: ADME, tissue-based; settings: 0.5 h, dose 0.5-10 µM
[26] = Biodistribution in ICR mouse assessed as drug accumulation in lungs at 0.74 MBq, iv pretreated with GSK'547 followed by compound administration measured after 10 mins by automatic gamma counter analysis; format: ADME, organism-based; settings: in vivo
[27] = Biodistribution in ICR mouse stomach at 0.74 MBq, iv measured after 10 mins by automatic gamma counter analysis; format: ADME, organism-based; settings: in vivo
[28] = Biodistribution in ICR mouse bone at 0.74 MBq, iv measured after 60 mins by automatic gamma counter analysis; format: ADME, organism-based, Bone element; settings: in vivo, 1 h
[29] = Biodistribution in ICR mouse assessed as decrease in drug accumulation in bone with marrow at 0.74 MBq, iv pretreated with GSK'547 followed by compound administration measured after 10 mins by automatic gamma counter analysis; format: ADME, organism-based; set-up: scale not given: the % may be the effect or the level left; settings: in vivo
[30] = Biodistribution in ICR mouse muscle at 0.74 MBq, iv measured after 30 mins by automatic gamma counter analysis; format: ADME, organism-based, Muscle tissue; settings: in vivo, 0.5 h
[31] = Biodistribution in ICR mouse small intestine at 0.74 MBq, iv measured after 10 mins by automatic gamma counter analysis; format: ADME, organism-based; settings: in vivo
[32] = Biodistribution in ICR mouse kidneys at 0.74 MBq, iv measured after 30 mins by automatic gamma counter analysis; format: ADME, organism-based, Kidney; settings: in vivo, 0.5 h
[33] = Drug uptake in thalamus of ICR mouse brain assessed as reduction in radioactivity at 0.5 to 10 uM incubated for 30 mins in presence of 10 uM of 1-(5-(3-fluorophenyl)-4,5-dihydro-1H-pyrazol-1-yl)-2,2-dimethylpropan-1-one by Phosphor Imager analysis; format: ADME, tissue-based; set-up: scale not given: the % may be the effect or the level left; settings: 0.5 h, dose 0.5-10 µM
[34] = Biodistribution in ICR mouse assessed as decrease in drug accumulation in small intestine at 0.74 MBq, iv pretreated with GSK'547 followed by compound administration measured after 10 mins by automatic gamma counter analysis; format: ADME, organism-based; set-up: scale not given: the % may be the effect or the level left; settings: in vivo
[35] = Biodistribution in ICR mouse blood at 0.74 MBq, iv measured after 30 mins by automatic gamma counter analysis; format: ADME, organism-based; settings: in vivo, 0.5 h
[36] = Biodistribution in ICR mouse heart at 0.74 MBq, iv measured after 30 mins by automatic gamma counter analysis; format: ADME, organism-based; settings: in vivo, 0.5 h
[37] = Drug uptake in brain of TNF-alpha-induced SIRS Sprague-Dawley rat model at 9.9 to 14.8 MBq, iv measured for 5 mins by PET analysis; format: ADME, organism-based; settings: in vivo, dose 9.9-14.8 MBq
[38] = Biodistribution in ICR mouse muscle at 0.74 MBq, iv measured after 60 mins by automatic gamma counter analysis; format: ADME, organism-based, Muscle tissue; settings: in vivo, 1 h
[39] = Biodistribution in ICR mouse kidneys at 0.74 MBq, iv measured after 2 mins by automatic gamma counter analysis; format: ADME, organism-based, Kidney; settings: in vivo
[40] = Biodistribution in ICR mouse pancreas at 0.74 MBq, iv measured after 10 mins by automatic gamma counter analysis; format: ADME, organism-based; settings: in vivo

CC(C)(C)C(=O)N1N=CCC1c1cccc([18F])c1 (stereo not given)
Drug uptake [1]: 4.17 % ID/g
Drug uptake [2]: 12.1%
Drug uptake [3]: 0.48 % ID/g
Drug uptake [4]: 21%
Drug uptake [5]: Active
Drug uptake [6]: 8.26 % ID/g
Drug uptake [7]: 7.56 % ID/g
Drug uptake [8]: 6.8 % ID/g
Drug uptake [9]: 5.07 % ID/g
Drug uptake [10]: 23.2%
Drug uptake [11]: 4.79 % ID/g
Drug uptake [12]: 2.48 % ID/g
Drug uptake [13]: Active
Drug uptake [14]: 3.7 % ID/g
Drug metabolism [15]: Metabolite_Detected
Drug uptake [16]: 18.03 % ID/g
Drug uptake [17]: 2.69 % ID/g
Activity [18]: 14.8%
Drug uptake [19]: 1.46 % ID/g
Drug uptake [20]: 9.8%
Drug uptake [21]: 22.56 % ID/g
Drug uptake [22]: 11.39 % ID/g
Activity [23]: 25.3%
Drug uptake [24]: 3.95 % ID/g
Drug uptake [25]: Active
Drug uptake [26]: 15.6%
Drug uptake [27]: 0.64 % ID/g
Drug uptake [28]: 5.69 % ID/g
Activity [29]: 11.9%
Drug uptake [30]: 1.13 % ID/g
Drug uptake [31]: 12.64 % ID/g
Drug uptake [32]: 9.68 % ID/g
Activity [33]: ~ 26%
Activity [34]: 13.3%
Drug uptake [35]: 2.96 % ID/g
Drug uptake [36]: 1.3 % ID/g
Drug uptake [37]: Active
Drug uptake [38]: 0.47 % ID/g
Drug uptake [39]: 10.39 % ID/g
Drug uptake [40]: 3.07 % ID/g
